Laboratory results from patent US20240350495A1, “[6R]-MTHF IN B6 ENHANCED 5-FU BASED CHEMOTHERAPY OF CARCINOMA” (Isofol Medical AB, priority 2023, published 2024).
Entries after “also recorded” stand apart in the source; their conditions may differ. One block for each molecule: values may come before it.

What was measured:
[1] = test system: human colon carcinoma HCT116 cell line; conditions: supplemented with high concentrations of PLP and leucovorin; cited from earlier work
[2] = test system: human colon carcinoma HT29 cell line; conditions: supplemented with high concentrations of PLP and leucovorin; cited from earlier work
[3] = test system: murine leukemia L1210 cell line; conditions: supplemented with high concentrations of PLP and leucovorin; cited from earlier work
[4] = [6R]-MTHF levels after arfolitixorin versus comparable leucovorin treatment; assay type: in vivo
From the text: This dependency on cellular activation provides a hurdle for reaching sufficient levels of the active [6R]-MTHF. […] Secondly, the enzymatic activation is genetically regulated^16,18, and is therefore associated with variability between individuals and conditions. Arfolitoxirin is believed to be efficacious in a larger proportion of patients with less inter- and intra-individual variability. These differences may potentially turn out to be of significant importance for increased clinical efficacy in 5-FU based cancer treatment.

[5] = test system: solid tumors; experiment: Phase I/IIa study ISO-CC-005 of arfolitixorin with 5-FU; assay type: in vivo, human; conditions: between 8 and 16 weeks after initiating treatment
Experimental: Arfolitixorin has been in development for a number of years and has been studied in several clinical studies.
The completion of the study was announced in January 2020. In total, 105 patients were included in the study. […] These patients had been treated with the “doublet” regimens comprising 120 mg/m^2 arfolitixorin and 5-fluorouracil (5-FU) with either irinotecan or oxaliplatin (ARFIRI/ARFOX). Out of the 31 patients, 17 were treated with an ARFOX regimen.

[6] = cited from earlier work
[7] = air, sunlight; cited from earlier work
[8] = Stability of the drug substance salt; assay type: physicochemical; conditions: compared with very unstable [6R]-5,10-MTHF
From the text: Arfolitixorin (former Modufolin®) is a folate-based biomodulator developed by applicant to improve the outcome of a range of antimetabolite treatments used within oncology. One of the therapeutic areas of specific interest included in the development program of arfolitixorin is as biomodulator of 5-fluorouracil (5-FU) activity in standard treatment regime for advanced, metastatic CRC, such as Stage IV. A stable lyophilizate formulation of the naturally occurring diastereoisomeric folate [6R]-5,10-MTHF has successfully been made from the drug substance arfolitixorin hemisulfate. […] As mentioned in the background section of the present application, [6R]-5,10-methylenetetrahydrofolate, abbreviated herein as [6R]-5,10-MTHF, needs to be metabolically formed when using the widely used folate-based drugs leucovorin and levoleucovorin.

[9] = kidneys; cited from earlier work
[10] = in vitro; cited from earlier work

SMILES: O=c1[nH]cc(F)c(=O)[nH]1 [5-FU, 5-fluorouracil]
- cytotoxic activity of 5-FU [1]: potentiated; also recorded: strongly potentiated
- cytotoxic activity of 5-FU [2]: potentiated; also recorded: strongly potentiated
- cytotoxic activity of 5-FU [3]: potentiated; also recorded: strongly potentiated

- [6R]-MTHF levels relative to comparable treatment with leucovorin [4]: 3-4 times
SMILES: Nc1nc2c(c(=O)[nH]1)N1CN(c3ccc(C(=O)N[C@@H](CCC(=O)O)C(=O)O)cc3)C[C@H]1CN2 [Arfolitixorin, [6R]-5,10-methylenetetrahydrofolate]
- progression of solid tumors [5]: No statistically significant progression

SMILES: Cc1ncc(CO)c(CO)c1O.Cl [Pyridoxine hydrochloride]
- solubility in water [6]: One gram dissolves in 5 ml of water
- stability [7]: stable in air and is slowly affected by sunlight

- stability of the salt [8]: unexpectedly stable salt
SMILES: Nc1nc2c(c(=O)[nH]1)N1CN(c3ccc(C(=O)N[C@@H](CCC(=O)O)C(=O)O)cc3)C[C@H]1CN2.Nc1nc2c(c(=O)[nH]1)N1CN(c3ccc(C(=O)N[C@@H](CCC(=O)O)C(=O)O)cc3)C[C@H]1CN2.O=S(=O)(O)O [arfolitixorin hemisulfate]

SMILES: Nc1nc2c(c(=O)[nH]1)N(C=O)[C@H](CNc1ccc(C(=O)N[C@@H](CCC(=O)O)C(=O)O)cc1)CN2 [d-LV]
- excretion [9]: slowly excreted by the kidneys

SMILES: Nc1nc(=O)c2c([nH]1)NC[C@H](CNc1ccc(C(=O)N[C@@H](CCC(=O)O)C(=O)O)cc1)N2C=O [l-LV]
- conversion to methyl-tetrahydrofolate [10]: rapidly converted to the biologically available methyl-tetrahydrofolate form
